System: 171881-019-R-J1-PDC tumor spheroids, viability
Assay: Anticancer human tumor 171881-019-R-J1-PDC patient-derived invasive breast carcinoma cell line growth inhibition [GQUAD]
Conditions: spheroids with HUVEC and MSC; for IC50: curve of first compound; for viability, T/C: stronger effect = lower value
In short: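 Viability of tumor cells grown as complex spheroids with endothelial and stromal cells, exposed to drug combinations. Top concentration at or near clinical Cmax (else 10 microM), diluted in half-log increments.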

[1] = second compound 0.0316 µM, first compound 0.0316 µM
[2] = second compound 0.0316 µM, first compound 0.1 µM
[3] = second compound 0.0316 µM, first compound 0.316 µM
[4] = second compound 0.0316 µM, first compound 1 µM
[5] = second compound 0.0316 µM, first compound 3.16 µM
[6] = second compound 0.0316 µM, first compound 10 µM
[7] = second compound 0.1 µM, first compound 0.0316 µM
[8] = second compound 0.1 µM, first compound 0.1 µM
[9] = second compound 0.1 µM, first compound 0.316 µM
[10] = second compound 0.1 µM, first compound 1 µM
[11] = second compound 0.1 µM, first compound 3.16 µM
[12] = second compound 0.1 µM, first compound 10 µM
[13] = second compound 0.316 µM, first compound 0.0316 µM
[14] = second compound 0.316 µM, first compound 0.1 µM
[15] = second compound 0.316 µM, first compound 0.316 µM
[16] = second compound 0.316 µM, first compound 1 µM
[17] = second compound 0.316 µM, first compound 3.16 µM
[18] = second compound 0.316 µM, first compound 10 µM
[19] = second compound 1 µM, first compound 0.0316 µM
[20] = second compound 1 µM, first compound 0.1 µM
[21] = second compound 1 µM, first compound 0.316 µM
[22] = second compound 1 µM, first compound 1 µM
[23] = second compound 1 µM, first compound 3.16 µM
[24] = second compound 1 µM, first compound 10 µM
[25] = second compound 3.16 µM, first compound 0.0316 µM
[26] = second compound 3.16 µM, first compound 0.1 µM
[27] = second compound 3.16 µM, first compound 0.316 µM
[28] = second compound 3.16 µM, first compound 1 µM
[29] = second compound 3.16 µM, first compound 3.16 µM
[30] = second compound 3.16 µM, first compound 10 µM
[31] = second compound 10 µM, first compound 0.0316 µM
[32] = second compound 10 µM, first compound 0.1 µM
[33] = second compound 10 µM, first compound 0.316 µM
[34] = second compound 10 µM, first compound 1 µM
[35] = second compound 10 µM, first compound 3.16 µM
[36] = second compound 10 µM, first compound 10 µM
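Throughout, for viability, T/C: 100% = DMSO vehicle control viability.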

O=c1[nH]cc(F)c(=O)[nH]1 + Cc1[nH]c2ccc(F)cc2c1-c1nc2c3cccnc3c3ncccc3c2[nH]1
IC50 (second compound 0.0316 µM): > 10000 nM
IC50 (second compound 0.1 µM): > 10000 nM
IC50 (second compound 0.316 µM): > 10000 nM
IC50 (second compound 1 µM): > 10000 nM
IC50 (second compound 3.16 µM): < 31.6 nM
IC50 (second compound 10 µM): < 31.6 nM
viability, T/C [1]: 75.7%
viability, T/C [2]: 64.5%
viability, T/C [3]: 62.7%
viability, T/C [4]: 54.1%
viability, T/C [5]: 47.7%
viability, T/C [6]: 53%
viability, T/C [7]: 80.5%
viability, T/C [8]: 70.7%
viability, T/C [9]: 60.9%
viability, T/C [10]: 54.7%
viability, T/C [11]: 50.5%
viability, T/C [12]: 53.5%
viability, T/C [13]: 73.1%
viability, T/C [14]: 65.8%
viability, T/C [15]: 59.3%
viability, T/C [16]: 52.7%
viability, T/C [17]: 58.7%
viability, T/C [18]: 52%
viability, T/C [19]: 68.6%
viability, T/C [20]: 55.4%
viability, T/C [21]: 56.6%
viability, T/C [22]: 50.2%
viability, T/C [23]: 54.3%
viability, T/C [24]: 48.8%
viability, T/C [25]: 21%
viability, T/C [26]: 21.6%
viability, T/C [27]: 30.6%
viability, T/C [28]: 23.8%
viability, T/C [29]: 24.2%
viability, T/C [30]: 24.7%
viability, T/C [31]: 44.4%
viability, T/C [32]: 47.8%
viability, T/C [33]: 47.3%
viability, T/C [34]: 42%
viability, T/C [35]: 52.1%
viability, T/C [36]: 38.8%

COc1ccc([C@@H](O)c2cc(-c3ncnc4cc(N5CCOCC5)ccc34)c(F)cc2Cl)nn1 + CN(C)c1ccc(Nc2c3ccc(NC(=O)CCN4CCCC4)cc3nc3cc(NC(=O)CCN4CCCC4)ccc23)cc1
IC50 (second compound 0.0316 µM): 544 nM
IC50 (second compound 0.1 µM): 570 nM
IC50 (second compound 0.316 µM): 335 nM
IC50 (second compound 1 µM): < 31.6 nM
IC50 (second compound 3.16 µM): < 31.6 nM
IC50 (second compound 10 µM): < 31.6 nM
viability, T/C [1]: 97.2%
viability, T/C [2]: 85.8%
viability, T/C [3]: 62.5%
viability, T/C [4]: 37.6%
viability, T/C [5]: 7.36%
viability, T/C [6]: 1.57%
viability, T/C [7]: 94.5%
viability, T/C [8]: 87%
viability, T/C [9]: 64.2%
viability, T/C [10]: 37.5%
viability, T/C [11]: 7.17%
viability, T/C [12]: 1.52%
viability, T/C [13]: 79.3%
viability, T/C [14]: 72.5%
viability, T/C [15]: 52.2%
viability, T/C [16]: 18.2%
viability, T/C [17]: 4.99%
viability, T/C [18]: 0.9%
viability, T/C [19]: 27.1%
viability, T/C [20]: 17.4%
viability, T/C [21]: 18.6%
viability, T/C [22]: 4.62%
viability, T/C [23]: 1.37%
viability, T/C [24]: 0.46%
viability, T/C [25]: 1.64%
viability, T/C [26]: 2.1%
viability, T/C [27]: 1.49%
viability, T/C [28]: 0.45%
viability, T/C [29]: 0.38%
viability, T/C [30]: 0.23%
viability, T/C [31]: 0.4%
viability, T/C [32]: 0.57%
viability, T/C [33]: 0.32%
viability, T/C [34]: 0.19%
viability, T/C [35]: 0.14%
viability, T/C [36]: 0.38%

O=C(c1cc(Cc2n[nH]c(=O)c3ccccc23)ccc1F)N1CCN(C(=O)C2CC2)CC1 + Cc1[nH]c2ccc(F)cc2c1-c1nc2c3cccnc3c3ncccc3c2[nH]1
IC50 (second compound 0.0316 µM): > 10000 nM
IC50 (second compound 0.1 µM): > 10000 nM
IC50 (second compound 0.316 µM): > 10000 nM
IC50 (second compound 1 µM): > 10000 nM
IC50 (second compound 3.16 µM): < 31.6 nM
IC50 (second compound 10 µM): > 10000 nM
viability, T/C [1]: 95.7%
viability, T/C [2]: 105%
viability, T/C [3]: 102%
viability, T/C [4]: 106%
viability, T/C [5]: 99.3%
viability, T/C [6]: 89.3%
viability, T/C [7]: 102%
viability, T/C [8]: 103%
viability, T/C [9]: 96.7%
viability, T/C [10]: 95.7%
viability, T/C [11]: 89.1%
viability, T/C [12]: 80.3%
viability, T/C [13]: 91.7%
viability, T/C [14]: 107%
viability, T/C [15]: 107%
viability, T/C [16]: 96.2%
viability, T/C [17]: 91.6%
viability, T/C [18]: 81.9%
viability, T/C [19]: 86.5%
viability, T/C [20]: 75.6%
viability, T/C [21]: 91.3%
viability, T/C [22]: 80.6%
viability, T/C [23]: 87.2%
viability, T/C [24]: 78.4%
viability, T/C [25]: 27.8%
viability, T/C [26]: 23.5%
viability, T/C [27]: 24.4%
viability, T/C [28]: 31.8%
viability, T/C [29]: 28.9%
viability, T/C [30]: 25.7%
viability, T/C [31]: 55.1%
viability, T/C [32]: 51.2%
viability, T/C [33]: 57.2%
viability, T/C [34]: 60.7%
viability, T/C [35]: 60.5%
viability, T/C [36]: 49.5%

C=CCn1c(=O)c2cnc(Nc3ccc(N4CCN(C)CC4)cc3)nc2n1-c1cccc(C(C)(C)O)n1 + Cc1cnc(CNC(=O)c2c(=O)c3ccc(N4CCCN(C)CC4)nc3n3c2sc2ccccc23)cn1
IC50 (second compound 0.0316 µM): 652 nM
IC50 (second compound 0.1 µM): 541 nM
IC50 (second compound 0.316 µM): 428 nM
IC50 (second compound 1 µM): 496 nM
IC50 (second compound 3.16 µM): 566 nM
IC50 (second compound 10 µM): 358 nM
viability, T/C [1]: 106%
viability, T/C [2]: 84.2%
viability, T/C [3]: 74.9%
viability, T/C [4]: 36.3%
viability, T/C [5]: 19.9%
viability, T/C [6]: 23.3%
viability, T/C [7]: 72.9%
viability, T/C [8]: 76%
viability, T/C [9]: 60.6%
viability, T/C [10]: 37.3%
viability, T/C [11]: 22.6%
viability, T/C [12]: 22.2%
viability, T/C [13]: 72.1%
viability, T/C [14]: 68.6%
viability, T/C [15]: 55.7%
viability, T/C [16]: 34.3%
viability, T/C [17]: 26.1%
viability, T/C [18]: 24.8%
viability, T/C [19]: 66.5%
viability, T/C [20]: 60.4%
viability, T/C [21]: 56.6%
viability, T/C [22]: 41.3%
viability, T/C [23]: 31.1%
viability, T/C [24]: 28.1%
viability, T/C [25]: 66.1%
viability, T/C [26]: 58%
viability, T/C [27]: 58.5%
viability, T/C [28]: 42.3%
viability, T/C [29]: 36.6%
viability, T/C [30]: 35.3%
viability, T/C [31]: 57.4%
viability, T/C [32]: 54.6%
viability, T/C [33]: 50.2%
viability, T/C [34]: 48.7%
viability, T/C [35]: 36.4%
viability, T/C [36]: 36%

— PubChem BioAssay AID2060498 (Molecular Pharmacology Branch, DTP, NCI, 2025)
